Data set [1] in a line: Selectivity index, ratio of CC50 for green monkey Vero-B cells to EC50 for Dengue virus infected in green monkey Vero-B cells. In kind it is toxicity, cell-based. The conditions noted are these: read-out: Ratio CC50/EC50.
Data set [2] is described as follows: Selectivity index, ratio of CC50 for green monkey Vero-B cells to EC50 for Yellow fever virus infected in green monkey Vero-B cells. Conditions: read-out: Ratio CC50/EC50. It counts as toxicity, cell-based.

Some results are limits rather than exact numbers.

`O=C(Nc1ccc(F)cc1)c1nccnc1C(=O)Nc1ccccc1-c1cccnc1`: the selectivity ratio was determined as 5.2 in data set [1] and 2.5 in data set [2]. In the case of `O=C(NCc1ccc(-c2ccsc2)cc1)c1nc[nH]c1C(=O)Nc1ccc(F)cc1`, the selectivity ratio came out at 0.6 in data set [1] and 4.13 in data set [2].

Turning to `Cc1ccc(NC(=O)c2nc[nH]c2C(=O)NCCc2ccc(F)cc2)c(-c2ccco2)c1`, the selectivity ratio in data set [1] was 30.9.

As to `Cc1ccc(NC(=O)c2[nH]cnc2C(=O)Nc2ccc(C)cc2-c2ccsc2)cc1`, the selectivity ratio in data set [1] is 24.5; in data set [2], 1. As for `Cc1ccc(NC(=O)c2nc[nH]c2C(=O)Nc2ccc(F)cc2)c(-c2ccco2)c1`, the selectivity ratio in data set [1] stood at 1. `Cc1ccc(NC(=O)c2nccnc2C(=O)NCc2ccccc2-c2ccncc2)cc1`: the figures for the selectivity ratio in data set [1] and in data set [2] were 2.04 and 1.7, respectively. Turning to `O=C(NCc1ccc(-c2ccncc2)cc1)c1nc[nH]c1C(=O)Nc1ccc(F)cc1`, the selectivity ratio in data set [1] and in data set [2] was 1 throughout. `Cc1ccc(NC(=O)c2nccnc2C(=O)Nc2ccc(C)cc2-c2ccncc2)cc1`: the values for the selectivity ratio in data set [1] and in data set [2] were 10 and 3.8, respectively. Regarding `Cc1cnc(NC(=O)c2[nH]cnc2C(=O)Nc2ccccc2)c(-c2ccc(C)s2)c1`, the selectivity ratio was found to be 0.22 in data set [1] and 0.97 in data set [2]. Taken in the same sequence, the figures for `Cc1ccc(NC(=O)c2nccnc2C(=O)Nc2ccccc2-c2ccncc2)cc1` were 26 and 10. Take `Cc1ccc(NC(=O)c2nc[nH]c2C(=O)NCc2ccccc2)c(-c2ccco2)c1`: in data set [1], the selectivity ratio is 1. Consider `O=C(Nc1ccc(F)cc1)c1nccnc1C(=O)Nc1ccccc1-c1ccncc1`, for which the selectivity ratio in data set [1] was 10.4; in data set [2], 15.

As to `Cc1ccc(NC(=O)c2nccnc2C(=O)Nc2ccc(F)cc2)c(-c2ccncc2)c1`, the selectivity ratio in data set [1] was 1; in data set [2] it was 2.6. As to `Cc1ccc(NC(=O)c2[nH]cnc2C(=O)Nc2ccc(C)cc2-c2ccco2)cc1`, the selectivity ratio in data set [1] came to 36.2. `Cc1cc(-c2ccccc2NC(=O)c2nc[nH]c2C(=O)Nc2ccc(F)cc2)[nH]n1`: the values for the selectivity ratio in data set [1] and in data set [2] were 3.6 and 67, respectively.

Turning to `O=C(NCc1ccccc1-c1ccncc1)c1nc[nH]c1C(=O)Nc1ccc(F)cc1`, the values for the selectivity ratio in data set [1] and in data set [2] were 26 and 31, respectively. Regarding `O=C(NCc1ccccc1-c1ccncc1)c1nccnc1C(=O)Nc1ccc(F)cc1`, the selectivity ratio in data set [1] was 2.9.

`Cc1ccc(NC(=O)c2nccnc2C(=O)Nc2ccc(F)cc2)c(-c2cccnc2)c1`: the selectivity ratio was over 125 in data set [1] and 9 in data set [2]. The matching figures for `O=C(NCc1ccc(-c2cccnc2)cc1)c1nccnc1C(=O)Nc1ccc(F)cc1`: 38.5 and 13. Taken in the same sequence, the figures for `Cc1ccc(NC(=O)c2nc[nH]c2C(=O)Nc2ccccc2)c(-c2ccsc2)c1` were 1 and 13. Taken in the same sequence, the figures for `O=C(NCc1ccccc1-c1ccsc1)c1nc[nH]c1C(=O)Nc1ccc(F)cc1` were 1.95 and 13.2. On to `O=C(NCc1ccc(-c2ccncc2)cc1)c1nccnc1C(=O)Nc1ccc(F)cc1`, for which the selectivity ratio in data set [1] is over 125; in data set [2] it was 16. Taken in the same sequence, the figures for `Cc1ccc(NC(=O)c2nc[nH]c2C(=O)Nc2ccc(F)cc2)c(-c2ccsc2)c1` were 2.4 and 1. Taken in the same sequence, the figures for `Cc1ccc(NC(=O)c2nccnc2C(=O)NCc2ccc(-c3ccncc3)cc2)cc1` were 4.5 and 3. For `Cc1ccc(NC(=O)c2nccnc2C(=O)NCc2ccc(-c3cccnc3)cc2)cc1`, the selectivity ratio stood at 17.2 in data set [1] and 1.7 in data set [2].

In the case of `O=C(NCc1ccc(-c2cccnc2)cc1)c1nc[nH]c1C(=O)Nc1ccc(F)cc1`, the selectivity ratio stood at 2.85 in data set [1] and 10 in data set [2].

`Cc1ccc(NC(=O)c2nc[nH]c2C(=O)Nc2ccc(F)cc2)c(-c2cc(C)n[nH]2)c1`: the results for the selectivity ratio in data set [1] and in data set [2] were 48 and 34.5, respectively.

In the case of `Cc1ccc(NC(=O)c2nccnc2C(=O)Nc2ccc(C)cc2-c2cccnc2)cc1`, the selectivity ratio in data set [1] was determined as 4.5; in data set [2], 4.1.

For the molecule `Cc1ccc(NC(=O)c2nccnc2C(=O)Nc2ccccc2-c2cccnc2)cc1`, the figures for the selectivity ratio in data set [1] and in data set [2] were 8.8 and 1, respectively.
